Patent US7749530B2, “Kinase inhibitors” (Allergan, Inc., priority 2005, dated 2010)

Test: in vitro release study of TKI from ocular implants (polymer composites)
Type: physicochemical
Conditions: for burst release at day 1 / period of release at the stated rate: formulation of 50% polymer (RG755 or RG504) and 50% TKI; for time over which the ocular composite continues to release the TKI / release of the TKI from the ocular implant (percent of TKI): phosphate buffered saline release medium pH 7.4, 37° C.; for release of the TKI from the ocular implant (percent of TKI): within 30 days
Procedure: The in vitro release study was carried out in an incubator at 37° C. shaking at 120 rpm.
The release medium was 0.02% Polysorbate 80 containing 10 mM phosphate buffered saline, pH7.4. The medium and implants were placed in 20 mL scintillation vials. At given time points, the medium containing released drug was collected and replaced with fresh medium. The concentration of the compound in the release medium was analyzed using HPLC.

SMILES | burst release at day 1 | period of release at the stated rate | time over which the ocular composite continues to release the TKI [months] | release of the TKI from the ocular implant (percent of TKI)
Cc1cc(C(=O)Nc2cccc(C(=O)c3ccc4c(c3)NC(=O)C4=CNc3ccc(CN4CCCC4)cc3)c2)n(C)n1 [Example 206, 2,5-Dimethyl-2H-pyrazole-3-carboxylic acid (3-{2-oxo-3-[(4-pyrrolidin-1-ylmethyl-phenylamino)-methylene]-2,3-dihydro-1H-indole-6-carbonyl}-phenyl)-amide] | minimal burst release | approximately 50 days | > 6 | 2-12%
Cc1ccoc1C(=O)Nc1cccc(C(=O)c2ccc3c(c2)NC(=O)C3=CNc2ccc(CCC(=O)[O-])cc2)c1.[Na+] [Example 378, 3-{4-[(6-{3-[(3-Methyl-furan-2-carbonyl)-amino]-benzoyl}-2-oxo-1,2-dihydro-indol-3-ylidenemethyl)-amino]-phenyl}-propionic acid, sodium salt] | minimal burst release | approximately 50 days | > 6 | 29-35%
Cc1cc(C(=O)Nc2cccc(C(=O)c3ccc4c(c3)NC(=O)C4=CNc3ccc(CCCC(=O)O)cc3)c2)n(C)n1 [Example 324, 4-{4-[(6-{3-[(2,5-Dimethyl-2H-pyrazole-3-carbonyl)-amino]-benzoyl}-2-oxo-1,2-dihydro-indol-3-ylidenemethyl)-amino]-phenyl}-butyric acid] | – | – | > 6 | 2-8%
